Measurements published in ChEMBL document CHEMBL5131429, “Synthesis and antifungal evaluation of phenol-derived bis(indolyl)methanes combined with FLC against Candida albicans” (Bioorg Med Chem Lett, 2022).
≈ marks a conversion by molar mass, not a printed value.

Columns and labels:
Assay type in all cases: functional
Candida albicans [1] = assay: Antifungal activity against Candida albicans SC5314 by microdilution method
Candida albicans [2] = assay: Antifungal activity against Candida albicans CA23 by microdilution method
Candida albicans [3] = assay: Antifungal activity against Candida albicans CA23 assessed as fractional inhibitory concentration index in presence of fluconazole by microdilution method
Candida albicans [4] = assay: Antifungal activity against Candida albicans CA23 in presence of fluconazole by microdilution method
Candida albicans [5] = assay: Antifungal activity against Candida albicans SC5314 assessed as fractional inhibitory concentration index in presence of fluconazole by microdilution method
Candida albicans [6] = assay: Antifungal activity against Candida albicans SC5314 in presence of fluconazole by microdilution method

SMILES | MIC80 (Candida albicans [1]) [µg/mL] | MIC80 (Candida albicans [2]) [µg/mL] | fractional inhibitory concentration index (FICI) (Candida albicans [3]) | MIC80 (Candida albicans [4]) [µg/mL] | fractional inhibitory concentration index (FICI) (Candida albicans [5]) | MIC80 (Candida albicans [6]) [µg/mL]
Oc1ccc(Cl)cc1C(c1c[nH]c2ccccc12)c1c[nH]c2ccccc12 | > 200 | > 200 | 0.1 | 31.8 | 0.12 | 3.27
COc1ccc(C(c2c[nH]c3ccccc23)c2c[nH]c3ccccc23)c(O)c1 | 1.85 (≈ 5.02 µM) | 32.7 (≈ 88.9 µM) | 0.18 | 5.79 | 0.58 | 1.01
Oc1ccc(F)cc1C(c1c[nH]c2ccccc12)c1c[nH]c2ccccc12 | > 200 | > 200 | 0.02 | 5.92 | 0.04 | 0.98
CN(C)c1ccc(C(c2c[nH]c3ccccc23)c2c[nH]c3ccccc23)c(O)c1 | 0.37 (≈ 0.97 µM) | 24 (≈ 62.8 µM) | 0.24 | 5.76 | 2.57 | 0.94
Oc1c(Br)cc(Br)cc1C(c1c[nH]c2ccccc12)c1c[nH]c2ccccc12 | > 200 | > 200 | 0.02 | 6.01 | 0.11 | 2.85
Cc1ccc(O)c(C(c2c[nH]c3ccccc23)c2c[nH]c3ccccc23)c1 | 23.2 (≈ 65.9 µM) | > 200 | 0.02 | 5.83 | 0.33 | 4.28
Oc1c(Cl)cc(Br)cc1C(c1c[nH]c2ccccc12)c1c[nH]c2ccccc12 | > 200 | 18.3 (≈ 40.6 µM) | 0.36 | 6.59 | 0.04 | 0.9
Oc1ccccc1C(c1c[nH]c2ccccc12)c1c[nH]c2ccccc12 | > 200 | > 200 | 0.03 | 6.07 | 0.12 | 3.22
Oc1ccc(O)c(C(c2c[nH]c3ccccc23)c2c[nH]c3ccccc23)c1 | 32.1 (≈ 90.5 µM) | 5.91 (≈ 16.7 µM) | 0.98 | 5.7 | 0.07 | 1.05
